How the values were obtained:
BI-2493 [1] = compound: T1, C[C@H]1CNCCN1c1nccc(-c2noc3c2CCC[C@@]32CCCc3sc(N)c(C#N)c32)n1 [BI-2493]; settings: 5 days
Procedure: (§1)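 PRISM pooled barcoded cancer cell line viability screen (Broad Institute) with BI-2493 at 8 doses in threefold dilutions from 0.00457 to 10 µmol/L, 5-day treatment; curves fitted per cell line. IC50 is undefined (placeholder) for resistant lines. AUC is capped at 1, and sensitivity is reported as 1 − AUC.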

BI-2493 [2] = compound: T1, BI-2493; test: 1 - AUC of viability dose-response curve (sensitivity) (fraction); higher = more sensitive; settings: 5 days
Procedure: as §1

TE9_OESOPHAGUS was tested, and the “IC50 of cell viability” value (BI-2493 [1]) was 5.83 µM and the “1 - AUC of viability dose-response curve” value (BI-2493 [2]) was 0.107.

For TE10_OESOPHAGUS, the “IC50 of cell viability” value (BI-2493 [1]) was > 10 µM and the “1 - AUC of viability dose-response curve” value (BI-2493 [2]) was 0.146.

For TE11_OESOPHAGUS, the “IC50 of cell viability” value (BI-2493 [1]) was 4.31 µM and the “1 - AUC of viability dose-response curve” value (BI-2493 [2]) was 0.102.

TE14_OESOPHAGUS was tested, and the “IC50 of cell viability” value (BI-2493 [1]) was 9.66 µM and the “1 - AUC of viability dose-response curve” value (BI-2493 [2]) was 0.00721.

In the case of TE15_OESOPHAGUS, the “IC50 of cell viability” value (BI-2493 [1]) is reported as 0.153 µM and the “1 - AUC of viability dose-response curve” value (BI-2493 [2]) is reported as 0.381.

For TE617T_SOFT_TISSUE, the “IC50 of cell viability” value (BI-2493 [1]) was 3.75 µM and the “1 - AUC of viability dose-response curve” value (BI-2493 [2]) was 0.193.

With TEN_ENDOMETRIUM the “IC50 of cell viability” value (BI-2493 [1]) was 9.58 µM and the “1 - AUC of viability dose-response curve” value (BI-2493 [2]) was 0.00891.

For TF1_HAEMATOPOIETIC_AND_LYMPHOID_TISSUE, the “IC50 of cell viability” value (BI-2493 [1]) was 0.352 µM and the “1 - AUC of viability dose-response curve” value (BI-2493 [2]) was 0.427.

For TFK1_BILIARY_TRACT, the “IC50 of cell viability” value (BI-2493 [1]) was 2.89 µM and the “1 - AUC of viability dose-response curve” value (BI-2493 [2]) was 0.173.

For TGBC1TKB_BILIARY_TRACT, the “IC50 of cell viability” value (BI-2493 [1]) was 7.28 µM and the “1 - AUC of viability dose-response curve” value (BI-2493 [2]) was 0.0559.

TGBC18TKB_LARGE_INTESTINE was tested, and the “IC50 of cell viability” value (BI-2493 [1]) was 9.22 µM and the “1 - AUC of viability dose-response curve” value (BI-2493 [2]) was 0.103.

In the case of TGBC52TKB_BILIARY_TRACT, the “IC50 of cell viability” value (BI-2493 [1]) is reported as 1.47 µM and the “1 - AUC of viability dose-response curve” value (BI-2493 [2]) is reported as 0.255.

For TGW_AUTONOMIC_GANGLIA, the “IC50 of cell viability” value (BI-2493 [1]) was 4.67 µM and the “1 - AUC of viability dose-response curve” value (BI-2493 [2]) was 0.123.

In the case of TM31_CENTRAL_NERVOUS_SYSTEM, the “IC50 of cell viability” value (BI-2493 [1]) is reported as 8.57 µM and the “1 - AUC of viability dose-response curve” value (BI-2493 [2]) is reported as 0.0846.

With TM87_SOFT_TISSUE the “IC50 of cell viability” value (BI-2493 [1]) was 5.06 µM and the “1 - AUC of viability dose-response curve” value (BI-2493 [2]) was 0.26.

TOV21G_OVARY was tested, and the “IC50 of cell viability” value (BI-2493 [1]) was 5.42 µM and the “1 - AUC of viability dose-response curve” value (BI-2493 [2]) was 0.114.

In the case of TT1TKB_LARGE_INTESTINE, the “IC50 of cell viability” value (BI-2493 [1]) is reported as 1.08 µM and the “1 - AUC of viability dose-response curve” value (BI-2493 [2]) is reported as 0.312.

TT2609C02_THYROID was tested, and the “IC50 of cell viability” value (BI-2493 [1]) was > 10 µM and the “1 - AUC of viability dose-response curve” value (BI-2493 [2]) was 0.00366.

With TTC442_SOFT_TISSUE the “IC50 of cell viability” value (BI-2493 [1]) was 5.84 µM and the “1 - AUC of viability dose-response curve” value (BI-2493 [2]) was 0.0621.

In the case of TTC549_SOFT_TISSUE, the “IC50 of cell viability” value (BI-2493 [1]) is reported as 5.34 µM and the “1 - AUC of viability dose-response curve” value (BI-2493 [2]) is reported as 0.113.

With TTC642_SOFT_TISSUE the “IC50 of cell viability” value (BI-2493 [1]) was 7.08 µM and the “1 - AUC of viability dose-response curve” value (BI-2493 [2]) was 0.0875.

In the case of TTC709_SOFT_TISSUE, the “IC50 of cell viability” value (BI-2493 [1]) is reported as 4.96 µM and the “1 - AUC of viability dose-response curve” value (BI-2493 [2]) is reported as 0.16.

TT_OESOPHAGUS was tested, and the “IC50 of cell viability” value (BI-2493 [1]) was 5.9 µM and the “1 - AUC of viability dose-response curve” value (BI-2493 [2]) was 0.191.

With TT_THYROID the “IC50 of cell viability” value (BI-2493 [1]) was 6.45 µM and the “1 - AUC of viability dose-response curve” value (BI-2493 [2]) was 0.0835.

With TUHR4TKB_KIDNEY the “IC50 of cell viability” value (BI-2493 [1]) was 3.62 µM and the “1 - AUC of viability dose-response curve” value (BI-2493 [2]) was 0.123.

With TYKNU_OVARY the “IC50 of cell viability” value (BI-2493 [1]) was 9.48 µM and the “1 - AUC of viability dose-response curve” value (BI-2493 [2]) was 0.0105.

For U2OS_BONE, the “IC50 of cell viability” value (BI-2493 [1]) was > 10 µM and the “1 - AUC of viability dose-response curve” value (BI-2493 [2]) was 0.215.

With U87MG_CENTRAL_NERVOUS_SYSTEM the “IC50 of cell viability” value (BI-2493 [1]) was > 10 µM and the “1 - AUC of viability dose-response curve” value (BI-2493 [2]) was 0.111.

With U118MG_CENTRAL_NERVOUS_SYSTEM the “IC50 of cell viability” value (BI-2493 [1]) was 6.46 µM and the “1 - AUC of viability dose-response curve” value (BI-2493 [2]) was 0.0721.

For U178_CENTRAL_NERVOUS_SYSTEM, the “IC50 of cell viability” value (BI-2493 [1]) was 7.8 µM and the “1 - AUC of viability dose-response curve” value (BI-2493 [2]) was 0.139.

In the case of “U266B1_HAEMATOPOIETIC_AND_LYMPHOID_TISSUE”, the “IC50 of cell viability” value (BI-2493 [1]) is reported as 7.47 µM and the “1 - AUC of viability dose-response curve” value (BI-2493 [2]) is reported as 0.0732.

With U343_CENTRAL_NERVOUS_SYSTEM the “IC50 of cell viability” value (BI-2493 [1]) was 6.54 µM and the “1 - AUC of viability dose-response curve” value (BI-2493 [2]) was 0.0705.

In the case of U937_HAEMATOPOIETIC_AND_LYMPHOID_TISSUE, the “IC50 of cell viability” value (BI-2493 [1]) is reported as 3.77 µM and the “1 - AUC of viability dose-response curve” value (BI-2493 [2]) is reported as 0.17.

In the case of “U2904_HAEMATOPOIETIC_AND_LYMPHOID_TISSUE”, the “IC50 of cell viability” value (BI-2493 [1]) is reported as 9.63 µM and the “1 - AUC of viability dose-response curve” value (BI-2493 [2]) is reported as 0.0108.

“U2973_HAEMATOPOIETIC_AND_LYMPHOID_TISSUE” was tested, and the “IC50 of cell viability” value (BI-2493 [1]) was 0.921 µM and the “1 - AUC of viability dose-response curve” value (BI-2493 [2]) was 0.33.

In the case of UACC62_SKIN, the “IC50 of cell viability” value (BI-2493 [1]) is reported as 9.21 µM and the “1 - AUC of viability dose-response curve” value (BI-2493 [2]) is reported as 0.0436.

In the case of UACC257_SKIN, the “IC50 of cell viability” value (BI-2493 [1]) is reported as 7.78 µM and the “1 - AUC of viability dose-response curve” value (BI-2493 [2]) is reported as 0.0407.

For UBLC1_URINARY_TRACT, the “IC50 of cell viability” value (BI-2493 [1]) was 4.3 µM and the “1 - AUC of viability dose-response curve” value (BI-2493 [2]) was 0.137.

With UMRC3_KIDNEY the “IC50 of cell viability” value (BI-2493 [1]) was 4.74 µM and the “1 - AUC of viability dose-response curve” value (BI-2493 [2]) was 0.106.

For UMRC7_KIDNEY, the “IC50 of cell viability” value (BI-2493 [1]) was 6.09 µM and the “1 - AUC of viability dose-response curve” value (BI-2493 [2]) was 0.0724.
